# Earlier results, collected in US4163799A, “Psychostimulant compounds” (Union Chimique Continentale U.C.C., priority 1975, dated 1979).
# Conditions: caffeine, comparison in words, no test described; cited from earlier work
smiles,measurement,value
Cn1c(=O)c2c(ncn2C)n(C)c1=O [caffeine],antihypnotic effect,does
